The subject of experiment [1] is DRG neurons. In words: Electrophysiological recordings (whole-cell patch-clamp, current-clamp) of DRG-derived neurons. The class given is cell-based, Sprague Dawley rat. As to the method: (§1) Dorsal Root Ganglion neurons were obtained by dissociation of post natal (P2) Sprague Dawley rat ganglia (Envigo, Bresso Italy), following well-defined protocols (O'Meara et al, 2011; Owen et al, 2012). To minimize introduction of contaminating cells into the culture, any excessively long roots were trimmed from DRGs. After the isolation, DRGs were enzymatically dissociated as follows: • 20 minutes of 1.5 mg/ml papain exposure at 37° C., • 30 minutes of 4 mg/ml collagenase exposure at 37° C.
Dorsal Root Gangliar (DRG)-derived neurons were cultured for 7 days and then treated in blind with the following combinations: 10 nM Paclitaxel, 10 nM Paclitaxel+1 μM DF3966Y, 1 μg/ml C5a, 1 μg/ml C5a+1 μM DF3966Y.
The compounds were administered for 1 min 30 sec (short acute stimulation) or 5 minutes (long chronic stimulation). The application of the compounds was followed by a wash-out in the physiological control solution for an equivalent time (about 10 min).
Electrophysiological recordings were performed by the patch-clamp technique in the whole-cell configuration. The standard extracellr solution was bath applied and contained the following (mM): NaCl 135, KCl 2, CaCl2 2, MgCl2 2, hepes 10, glucose 5, pH 7.4. The standard pipet solution contained the following (mM): potassium aspartate 130, NaCl 10, MgCl2 2, CaCl2 1.3, EGTA 10, Hepes 10, pH 7.3. Recordings were acquired by the pClamp8.2 software and the MultiClamp 700A amplifier (Axon Instruments), in current-clamp mode.

For experiment [2], the system named is DRG neurons. Kind of experiment: Synapse number on DRG neurons (synaptotagmin staining, image analysis). The class given is cell-based, Sprague Dawley rat. As to conditions: for % of synapse number: relative to UT. As to the method:
as §1
(§2) Subsequently, cells were mechanically dissociated with a fire polished glass Pasteur pipette, in order to obtain a single cell suspension.
(§3) Once dissociation was achieved, cells were seeded onto 96 black multiwell plates coated with Laminin (10 ug/mL, overnight at Room Temperature, RT) at selected densities. Following 1 week of incubation in DMEM high glucose medium supplemented with 10% FBS, 1× N2, 1× B27, 100 IU/mI penicillin, […] streptomycin, cells were treated according to experimental needs.
(§4) Alpha Tubulin Acetylation DRG-derived neurons were cultured for 7 days and then treated with:
(§5) • paclitaxel (200 nM, 500 nM, 1 μM and 5 μM, 20 μM) in presence or absence of DF3966Y (0.1, 1 and 10 μM) or DF2593A (0.1, 1 and 10 μM) • or C5a (500 ng/ml and 1 μg/ml) in presence or absence of DF3966Y (1 μM)
(§6) After 24 hr of treatment, cells were stained by immunofluorescence.
(§7) Cells were fixed with saccharose-paraformaldehyde then staining was performed overnight. Primary antibodies (anti—Ill Tubulin and anti-synaptotagmin 1) were diluted 1:500 in 1×PBS-4% BSA-2% Normal goat serum and 0.3% Triton x-100. The next day, cells were washed with 1×PBS-4% BSA and secondary antibodies were used diluted 1:500 in 1×PBS-4% BSA-2% Normal goat serum and 0.3% Triton x-100. After 1 hr of incubation, cells were washed with 1×PBS. Hoechst was used as a counterstain.
(§8) Sixteen images per well were taken with ArrayScan XTI HCA Reader (Thermo Fisher Scientific) with and 40× objective. All the analysis were done with HCS Studio software
For synapse count a threshold has been set, in particular all the objects, positive to synaptotagmin staining, in the range 0.365-2.457 μm^2 have been considered as synapses.
(§9) Cells number, synapse number and dentritic arborization were evaluated in untreated cells and in cells stimulated with paclitaxel and C5a alone or in presence of the drug. As marker of chemotherapy-induced toxicity, the total number of synapses on DRG neurons was quantitative evaluated as percentage of the number of synapse with respect to untreated (UT) control.
(§10) Data are obtained as the sum of the values obtained by the analysis of sixteen fields per well for each experiment. Percentage of the values in respect to the relative mean untreated group was calculated. Mean of the percentages from 4 separate experiments was plotted in the following Tables 2-7.

Experiment [3] concerns DRG neurons. In words: Cells number of DRG neurons (immunofluorescence, image analysis). The class given is cell-based. As to conditions: for % of cell number: relative to UT. The protocol:
as §1, §2, §3, §4, §5, §6, §7, §8, §9, §10

A further experiment has as its system acetylated α-Tubulin. Kind of experiment: In-cell western analysis of acetylated α-Tubulin in DRG neurons. The class given is cell-based, Sprague Dawley rat. Conditions: for Acetylated α-Tubulin (% of UT): DRG neurons. The protocol:
as §1, §2, §3
Dorsal Root Ganglion neurons isolated as previously reported were subjected to the following experimental challenge scheme as depicted in FIG. 10.
Paclitaxel, C5a and drugs were administered 24 hr prior the in-cell western experiment. Following 24 hr of treatment with appropriate stimuli as previously indicated, cells were washed with 1×PBS and fixed with 3,7% formaldehyde for 15 min. After the removal of fixing solution, cells were washed with 1×PBS and permeabilized with 1×PBS-0,1% Triton X-100 for 5 min at RT. Cells were then stained over night at 4° C. with the anti-acetylated α-Tubulin antibody, diluted 1:500 in Odyssey Blocking buffer, following manufacturer's protocol.
The next day, cells were washed with 1×PBS-0.1% Tween20, and stained with the secondary antibody (diluted 1:800 in Odyssey Blocking buffer, as recommended by the protocol) and with the CellTag 700Stain […]. To lower the background, Tween20 at a final concentration of 0.2% was added to the Odyssey Blocking buffer. 96-well plates were then read at Odyssey CLx Imaging system and images acquired. Data analysis was carried out by the use of Image Studio 2.1 software.
Paclitaxel was given to the DRG neurons following 7 days of culture at the concentration of 200 nM (Scuteri et al. 2006).
Effect of DF3966Y in C5α-induced neuronal toxicity In order to determine whether the observed effects may be triggered also by C5a, recombinant mouse C5a 1 μg/ml (111.11 nM) was given to the DRG neurons after 7 days of culture in presence or absence of DF3966Y 1 μM.
After 24 hr of incubation, acetylated α-Tubulin was quantified using in-cell western technique, as previously described.

Experiment [4] has as its system DRG neurons. In words: Dendritic tree area of DRG neurons (image analysis). The class given is cell-based, Sprague Dawley rat. As to conditions: for % dendritic tree area: relative to UT. The protocol:
as §1, §2, §3, §4, §5, §6, §7, §8
Dendritic arborization directly influences synaptic genesis and input. A well-developed arborization indicates a functional synaptic network. For this reason, the area occupied by dendritic arborization has been quantified.
as §10

On to `C[C@H](c1ccc(Nc2nc(C(F)(F)F)cs2)cc1)c1nnn[nH]1` [DF3966Y, 1-N-[4-[(1R)-1-(1H-tetrazol-5-yl)ethyl]phenyl}-4-(trifluoromethyl)-11,3-thiazol-2-amine], for which the “alteration of electrical activity under Paclitaxel plus drug” value in the experiment on DRG neurons [1] (10 nM Paclitaxel + 1 μM DF3966Y, first immediate phase and longer time of exposure) is recorded as “no significant alteration of electrical activity”. Besides, in the experiment with DRG neurons [1] (1 μg/ml C5a + 1 μM DF3966Y, longer time of exposure (3-5 minutes)), the “inhibition of electrical activity under C5a plus drug, longer time of exposure” value was “about 35%”. In addition, the “alteration of electrical activity under C5a plus drug, short time points” value with DRG neurons [1] (1 μg/ml C5a + 1 μM DF3966Y, short time points) is reported as “no significant alteration of the electrical activity”. In addition, the “% of synapse number” value is 111.33 ± 9.27% in the experiment with DRG neurons [2] (DF3966Y 1 μM + C5a (Table 5)), 92.04 ± 21.01% with DRG neurons [2] (DF3966Y 1 μM + PAC (Table 4)), 99.89 ± 12.94% in the experiment on DRG neurons [2] (DF3966Y 1 μM alone (Table 4)) and 99.89 ± 12.94% with DRG neurons [2] (DF3966Y 1 μM alone (Table 5)). Further, the “effect on Paclitaxel-induced decrease in synapse number” value in the experiment on DRG neurons [2] (DF3966Y 1 μM + paclitaxel) is “significantly counteracted Paclitaxel-induced effect”. Moreover, the “% of cell number” value was found to be 96.65 ± 10.77% with DRG neurons [3] (DF3966Y 1 μM + C5a (Table 3)), 98.83 ± 12.49% in the experiment on DRG neurons [3] (DF3966Y 1 μM + PAC (Table 2)), 101.55 ± 10.59% with DRG neurons [3] (DF3966Y 1 μM alone (Table 2)) and 96.96 ± 6.45% with DRG neurons [3] (DF3966Y 1 μM alone (Table 3)). In addition, the “effect on cell number” value in the experiment on DRG neurons [3] (DF3966Y administered alone or with PAC) is listed as “did not exert any significant effect on cell number”. In the experiment with acetylated α-Tubulin (DF3966Y 1 μM + C5a 1 μg/ml, 24 hr), the “levels of acetylated α-Tubulin under C5a plus drug” value is “significantly reduced the challenge induced by C5a exposure”. Also, the “Acetylated α-Tubulin (% of UT)” value in the experiment on acetylated α-Tubulin (drug 0.1 μM under Paclitaxel 200 nM, 24 hr) is 76.45 % of UT; in the experiment on acetylated α-Tubulin (drug 1 μM under Paclitaxel 200 nM, 24 hr), 65.16 % of UT; in the experiment with acetylated α-Tubulin (drug 10 μM under Paclitaxel 200 nM, 24 hr), 89.05 % of UT. In the experiment on acetylated α-Tubulin (drug 0.1, 1, 10 μM, Paclitaxel 200 nM), the “reversal of Paclitaxel-induced increase in acetylated α-Tubulin” value is “significantly reverted the Paclitaxel-induced challenge”. The “% dendritic tree area” value with DRG neurons [4] (DF3966Y 1 μM + C5a (Table 7)) is recorded as 106.45 ± 9.43%; in the experiment on DRG neurons [4] (DF3966Y 1 μM + PAC (Table 6)) it was 101.21 ± 7.97%; in the experiment with DRG neurons [4] (DF3966Y 1 μM alone (Table 6)), 103.07 ± 8.17%; with DRG neurons [4] (DF3966Y 1 μM alone (Table 7)), 103.07 ± 8.17%. In addition, the “effect on paclitaxel-induced decrease of dendritic arborization area” value in the experiment with DRG neurons [4] (DF3966Y 1 μM + paclitaxel) was “seems to counteract such a decrease”.

`CC(=O)O[C@H]1C(=O)[C@@]2(C)[C@H]([C@H](OC(=O)c3ccccc3)[C@]3(O)C[C@H](OC(=O)[C@H](O)[C@@H](NC(=O)c4ccccc4)c4ccccc4)C(C)=C1C3(C)C)[C@]1(OC(C)=O)CO[C@@H]1C[C@@H]2O` [Paclitaxel, reference compound]: the “action potential firing rate vs CTRL, immediate” value in the experiment on DRG neurons [1] (10 nM Paclitaxel alone, immediate phase) is recorded as “+54.64%”. For the same molecule, the “electrical activity vs CTRL, longer times of exposure” value with DRG neurons [1] (10 nM Paclitaxel alone, longer times of exposure) was −83.51%. Also, the “% of synapse number” value in the experiment with DRG neurons [2] (PAC alone (Table 4)) is 88.02 ± 2.99%. In addition, in the experiment on DRG neurons [2] (Paclitaxel alone), the “effect on synapse number” value is “marked decrease in synapse number”. The “effect on cell number” value with DRG neurons [3] (Paclitaxel alone) was “slight decrease in cell number”. The “% of cell number” value with DRG neurons [3] (Paclitaxel alone (Table 2)) is listed as 88.87 ± 6.04%. Also, in the experiment with acetylated α-Tubulin (Paclitaxel 200 nM alone), the “change in acetylated α-Tubulin with respect to control (UT) cells” value is “marginal yet significant increase”. Further, the “Acetylated α-Tubulin (% of UT)” value in the experiment on acetylated α-Tubulin (Paclitaxel 200 nM alone, 24 hr) is 111.41 % of UT. For the same molecule, the “% dendritic tree area” value in the experiment on DRG neurons [4] (PAC alone (Table 6)) turned out to be 92.22 ± 3.47%. In addition, the “area occupied by dendritic arborization” value in the experiment with DRG neurons [4] (Paclitaxel alone) is recorded as “non-significant decrease”.

The record behind these values is patent publication US12102607B2, “C5aR inhibitors for use in the treatment of chemotherapy-induced iatrogenic pain” (Dompe' Farmaceutici S.P.A., priority 2017, dated 2024).
